The results in this text go back to US8232283B2, “Raf inhibitors” (Forma Therapeutics, Inc., priority 2008, dated 2012).

Where two headings read alike, the source gives them in different places.

The test system of assay [1] is HT-29 [B-Raf V600E mutant]. The assay can be described thus: Anti-proliferative activity, SRB assay, 72 hours. The following applies: Homo sapiens, read-out: CELLULAR IC50 [μM] HT-29 [B-Raf V600E mutant]. The class given is cell-based. The method, boiled down: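 HT-29 cells, plated 24 h before dosing, exposed to a concentration range of compound for 72 h. Proliferation measured by sulforhodamine B staining after TCA fixation, absorbance at 520 nm; % inhibition versus DMSO-treated cells used to estimate IC50.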
On the technique in general: In SRB staining, fixed cells bind dye roughly in proportion to their protein.

For a further assay, the target named is T1, p38 (Homo sapiens, UniProt Q16539).
T1 construct: purchased Proteros biostructures GmbH (selectivity panel service)
T1 sequence (Q16539 whole entry): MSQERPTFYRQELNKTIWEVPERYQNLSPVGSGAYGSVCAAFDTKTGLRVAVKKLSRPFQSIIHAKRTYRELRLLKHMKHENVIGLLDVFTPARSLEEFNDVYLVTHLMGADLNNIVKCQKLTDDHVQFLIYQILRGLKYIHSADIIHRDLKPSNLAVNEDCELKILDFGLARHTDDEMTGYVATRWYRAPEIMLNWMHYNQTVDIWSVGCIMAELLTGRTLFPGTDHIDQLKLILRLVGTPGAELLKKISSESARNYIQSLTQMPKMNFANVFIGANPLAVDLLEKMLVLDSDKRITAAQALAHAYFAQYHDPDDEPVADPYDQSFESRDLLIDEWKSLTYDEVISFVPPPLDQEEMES
The assay can be described thus: Biochemical inhibition, standard selectivity panel (Proteros). The arrangement: dose or concentration left out as unconfirmed. The method, then: (§1) For example, selected compound of the present invention were tested in a standard selectivity panel including c-Raf, p38, and 22 other kinases (Proteros biostructures GmbH, Martinsried/Munich, Germany), under conditions of non-disclosure, non-dissemination and non-use.
(§2) In brief, selected compounds of the present invention were tested […] in triplicates against c-Raf, p38 as well as against Ab1, Akt1, Aur A, c-Kit, c-Raf, Cdk1/CycB, Chk1, FGFR3, Flt3, Fyn, IGF1-R, INSR, Lyn, MAPK-ERK1, PAK-4, PKCalpha, Plk1, Ret, ROCK2, RSK 1, c-Src, TIE2, and VEGF-R2.

Another assay has as its target T2, C-Raf (Homo sapiens, UniProt P04049).
T2 construct: purchased Proteros biostructures GmbH (selectivity panel service)
The description is as above. Also on record: dose or concentration left out as unconfirmed. How it is done:
as §1, §2

In another assay the target is B-Raf (Homo sapiens, UniProt P15056). The assay can be described thus: SelectScreen Kinase Profiling Service (Invitrogen), IC50 with or without 5 h preincubation of kinase/test compound. The class given is biochemical. How it is done: (§3) d) B-Raf/B-Raf (V600E) (SelectScreen™ Assay)
Chain of B-Raf (P15056 whole entry): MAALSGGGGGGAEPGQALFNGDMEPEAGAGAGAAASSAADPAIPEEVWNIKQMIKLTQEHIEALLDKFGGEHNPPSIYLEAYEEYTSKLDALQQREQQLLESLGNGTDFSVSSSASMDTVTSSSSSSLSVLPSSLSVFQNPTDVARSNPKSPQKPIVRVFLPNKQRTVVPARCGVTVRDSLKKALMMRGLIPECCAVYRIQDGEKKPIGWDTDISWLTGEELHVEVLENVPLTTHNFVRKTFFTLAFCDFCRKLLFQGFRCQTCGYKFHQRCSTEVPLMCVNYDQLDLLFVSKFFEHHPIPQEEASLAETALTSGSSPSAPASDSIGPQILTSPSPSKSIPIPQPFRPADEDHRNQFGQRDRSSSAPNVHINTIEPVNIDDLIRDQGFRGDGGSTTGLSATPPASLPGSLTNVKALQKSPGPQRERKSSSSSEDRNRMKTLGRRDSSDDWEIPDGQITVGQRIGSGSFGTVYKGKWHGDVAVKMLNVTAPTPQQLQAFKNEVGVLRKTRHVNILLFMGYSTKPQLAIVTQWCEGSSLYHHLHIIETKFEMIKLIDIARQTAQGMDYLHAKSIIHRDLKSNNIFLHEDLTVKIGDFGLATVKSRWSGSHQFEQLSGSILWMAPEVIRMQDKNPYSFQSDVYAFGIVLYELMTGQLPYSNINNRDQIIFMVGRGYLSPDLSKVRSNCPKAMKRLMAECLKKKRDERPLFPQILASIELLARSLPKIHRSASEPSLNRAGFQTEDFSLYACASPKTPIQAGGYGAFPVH
(§4) Selected compound of the present invention were tested in the Select Screen™ Kinase Profiling Service (Invitrogen Corporation, Madison, Wis. 53719, USA) against B-Raf and the B-Raf (V600E) [“V599E” in terminology used by Invitrogen], under conditions of non-disclosure, non-dissemination and non-use.
(§5) In brief, compounds 11 and 39 (see Table 1) were tested at Invitrogen against B-Raf and the B-Raf (V600E), either with or without preincubation of kinase/test compound for 5 hours.

A further assay deals with B-Raf (V600E) (Homo sapiens, UniProt P15056, V600E). The description is as above. The assay is classed as biochemical. The method, then:
as §3, §4, §5

The subject of the next assay is A-431 [B-Raf wildtype]. The assay can be described thus: Anti-proliferative activity, SRB assay, 72 hours. The class given is cell-based. The following applies: Homo sapiens, read-out: CELLULAR IC50 [μM] A-431 [B-Raf wildtype]. The method, boiled down:
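Cells seeded 24 h before compound, then exposed to a concentration range for 72 h. TCA-fixed, stained with sulforhodamine B, bound dye solubilized in 10 mM Trizma and read at OD520. IC50 from % inhibition of proliferation vs DMSO-treated cells.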

[2] abbreviates: 5 h preincubation of kinase/test compound, read-out: IC50 [nM] B-Raf 5 h preincub.
[3] abbreviates: without preincubation of kinase/test compound, read-out: IC50 [nM] B-Raf w/o preincub.
Where [4] appears, read: 5 h preincubation of kinase/test compound, read-out: IC50 [nM] B-Raf (V600E) 5 h preincub.
Setting [5] is: without preincubation of kinase/test compound, read-out: IC50 [nM] B-Raf (V600E) w/o preincub.

Chain of B-Raf (V600E) (P15056 whole entry V600E): as the sequence (P15056 whole entry) above, with V600E counted along it
T2 sequence (P04049 whole entry): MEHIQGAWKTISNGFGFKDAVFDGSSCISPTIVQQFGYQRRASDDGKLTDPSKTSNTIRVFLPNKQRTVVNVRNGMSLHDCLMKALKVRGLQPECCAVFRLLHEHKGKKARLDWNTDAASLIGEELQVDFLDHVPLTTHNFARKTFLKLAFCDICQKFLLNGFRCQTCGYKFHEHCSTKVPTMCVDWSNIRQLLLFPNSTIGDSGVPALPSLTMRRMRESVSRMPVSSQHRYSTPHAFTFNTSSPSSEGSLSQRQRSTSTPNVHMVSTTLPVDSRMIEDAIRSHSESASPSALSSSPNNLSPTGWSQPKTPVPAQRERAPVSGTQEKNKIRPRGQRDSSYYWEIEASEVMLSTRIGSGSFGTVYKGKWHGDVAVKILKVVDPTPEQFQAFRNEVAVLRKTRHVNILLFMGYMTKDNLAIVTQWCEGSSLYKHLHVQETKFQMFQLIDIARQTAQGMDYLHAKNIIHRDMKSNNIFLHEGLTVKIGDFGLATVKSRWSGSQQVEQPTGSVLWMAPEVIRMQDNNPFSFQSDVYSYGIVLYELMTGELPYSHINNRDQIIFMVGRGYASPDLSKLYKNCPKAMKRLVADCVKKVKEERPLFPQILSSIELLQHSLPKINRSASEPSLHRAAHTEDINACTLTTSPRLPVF

A word on the inhibition: it is the relative decrease from the control value, in per cent. As for `COn1c(=O)c(-c2cc(NC(=O)c3cccc(C(F)(F)F)c3F)ccc2Cl)cc2cnc(NCCN(C)C)nc21` [Compound 39, N-{4-Chloro-3-[2-(2-dimethylamino-ethylamino)-8-methoxy-7-oxo-7,8-dihydro-pyrido[2,3-d]pyrimidin-6-yl]-phenyl}-2-fluoro-3-trifluoromethyl-benzamide], the IC50 is below 5 µM in assay [1]; below 10 nM on B-Raf (setting [2]); below 10 nM at B-Raf (setting [3]); below 5 nM at B-Raf (V600E) (setting [4]); below 5 nM at B-Raf (V600E) (setting [5]); above 10 µM in the assay on A-431 [B-Raf wildtype]. Moreover, the inhibition on p38 and at C-Raf was above 70% each time.
As for `COn1c(=O)c(-c2cc(NC(=O)c3cc(C(C)(C)C)nn3C)ccc2Cl)cc2cnc(NCCN(C)C)nc21` [Compound 11, 5-tert-Butyl-2-methyl-2H-pyrazole-3-carboxylic acid {4-chloro-3-[2-(2-dimethylamino-ethylamino)-8-methoxy-7-oxo-7,8-dihydro-pyrido[2,3-d]pyrimidin-6-yl]-phenyl}-amide], the IC50 was below 10 µM in assay [1]; below 250 nM on B-Raf (setting [2]); below 250 nM on B-Raf (setting [3]); below 100 nM at B-Raf (V600E) (setting [4]); below 100 nM on B-Raf (V600E) (setting [5]); above 10 µM with A-431 [B-Raf wildtype].
With `COn1c(=O)c(-c2cc(NC(=O)Nc3cccc(Cl)c3)ccc2Cl)cc2cnc(NCCN(C)C)nc21` [Compound 43, 1-{4-Chloro-3-[2-(2-dimethylamino-ethylamino)-8-methoxy-7-oxo-7,8-dihydro-pyrido[2,3-d]pyrimidin-6-yl]-phenyl}-3-(3-chloro-phenyl)-urea], the IC50 in assay [1] is below 5 µM; in the assay on A-431 [B-Raf wildtype] it was above 10 µM. Moreover, the inhibition on p38 and at C-Raf was above 70% each time.
Turning to `COn1c(=O)c(-c2cc(NC(=O)c3cccc(C(F)(F)F)c3)ccc2Cl)cc2cnc(NCCN(C)C)nc21` [Compound 24, N-{4-Chloro-3-[2-(2-dimethylamino-ethylamino)-8-methoxy-7-oxo-7,8-dihydro-pyrido[2,3-d]pynmidin-6-yl]-phenyl}-3-trifluoromethyl-benzamide], the IC50 was below 5 µM in assay [1] and above 10 µM with A-431 [B-Raf wildtype]. For the same compound, the inhibition against p38 and against C-Raf was above 70% each time.
